“Also recorded” adds a separate entry of the source. Like-named read-outs stand apart in the source and are kept apart here.
Assays:
[1] = in vivo; cited from earlier work
postsynaptic GABAARs = assay: Whole-cell currents evoked by exogenous GABA (10 μM) in cultured hippocampal neurons; type: cell-based, mice
α5GABAARs [2] = target: T1, α5GABAARs (Mus musculus, UniProt P22723+Q8BHJ7); assay: Tonic inhibitory current, whole cell voltage-clamp in cultured hippocampal neurons; type: cell-based, mice; design: endogenous in cells; host or cells: primary embryonic mouse hippocampal neurons, alone or co-cultured with cortical microglia; conditions: for effect on the tonic current (in words): cultured hippocampal neurons; for amplitude of the tonic current: TNF-α 100 ng/ml, n=10, IL-6 10 ng/ml, n=5
T1 sequence (Q8BHJ7 32-463 limits assumed): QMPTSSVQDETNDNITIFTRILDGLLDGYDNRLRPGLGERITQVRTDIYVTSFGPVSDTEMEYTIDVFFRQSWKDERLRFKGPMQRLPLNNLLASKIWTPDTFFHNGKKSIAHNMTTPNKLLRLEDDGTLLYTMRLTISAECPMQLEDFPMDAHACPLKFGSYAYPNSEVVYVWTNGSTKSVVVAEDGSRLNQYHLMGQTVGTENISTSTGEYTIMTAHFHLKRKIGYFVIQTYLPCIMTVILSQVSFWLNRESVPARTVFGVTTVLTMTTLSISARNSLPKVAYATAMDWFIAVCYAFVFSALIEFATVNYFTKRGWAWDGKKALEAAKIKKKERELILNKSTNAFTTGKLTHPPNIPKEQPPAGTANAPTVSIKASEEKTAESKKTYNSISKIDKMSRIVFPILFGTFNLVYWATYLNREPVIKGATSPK
T1 sequence (P63080 26-473 partner): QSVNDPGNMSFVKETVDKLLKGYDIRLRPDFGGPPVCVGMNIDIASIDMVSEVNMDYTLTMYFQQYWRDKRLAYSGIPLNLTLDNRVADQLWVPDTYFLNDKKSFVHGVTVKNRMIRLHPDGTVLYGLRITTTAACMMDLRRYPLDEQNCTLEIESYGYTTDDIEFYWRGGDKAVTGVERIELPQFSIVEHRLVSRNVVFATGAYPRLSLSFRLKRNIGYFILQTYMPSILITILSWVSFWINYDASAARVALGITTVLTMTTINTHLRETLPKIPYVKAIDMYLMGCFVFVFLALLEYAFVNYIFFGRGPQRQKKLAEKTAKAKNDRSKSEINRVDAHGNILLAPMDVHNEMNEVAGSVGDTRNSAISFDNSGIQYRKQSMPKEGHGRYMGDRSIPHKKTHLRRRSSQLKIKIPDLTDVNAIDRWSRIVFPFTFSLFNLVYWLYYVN
T1 sequence (P22723 39-474): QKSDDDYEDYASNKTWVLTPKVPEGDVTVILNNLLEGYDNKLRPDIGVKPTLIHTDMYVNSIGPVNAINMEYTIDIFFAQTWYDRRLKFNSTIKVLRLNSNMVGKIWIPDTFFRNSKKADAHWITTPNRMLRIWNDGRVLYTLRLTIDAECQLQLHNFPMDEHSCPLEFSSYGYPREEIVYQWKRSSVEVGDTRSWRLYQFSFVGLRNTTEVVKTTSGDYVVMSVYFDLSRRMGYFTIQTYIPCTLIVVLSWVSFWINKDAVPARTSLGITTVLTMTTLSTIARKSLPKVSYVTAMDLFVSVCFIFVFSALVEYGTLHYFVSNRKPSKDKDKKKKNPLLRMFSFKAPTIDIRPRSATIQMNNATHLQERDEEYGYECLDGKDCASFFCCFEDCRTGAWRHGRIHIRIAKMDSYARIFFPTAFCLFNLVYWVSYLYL

α5GABAARs [3] = target: T2, α5GABAARs (Mus musculus, UniProt P22723+P63080+Q8BHJ7); conditions: cited from earlier work
T2 construct: host or cells: neurons (mIPSCs and tonic current recorded); preparation not described in this paragraph
T2 sequence (Q8BHJ7 32-463 limits assumed): as the sequence (Q8BHJ7 32-463 limits assumed) above
T2 sequence (P63080 26-473): as the sequence (P63080 26-473 partner) above
T2 sequence (P22723 39-474): as the sequence (P22723 39-474) above

synaptic GABAARs = assay: Miniature inhibitory postsynaptic currents (mIPSCs) in cultured hippocampal neurons; type: cell-based, mice
[4] = rats; cited from earlier work
α5GABAARs [5] = target: T1, α5GABAARs; conditions: WT mice, etomidate or etomidate plus L-655,708 30 min prior to training; cited from earlier work
α5GABAA receptors [6] = target: α5GABAA receptors (Mus musculus, UniProt P22723+Q8BHJ7); conditions: for effect of the anesthetic on recognition memory, wild-type mice (in words): 24 h after anesthesia
Sequence of α5GABAA receptors (Mus musculus, UniProt P22723+Q8BHJ7) (Q8BHJ7 32-463 limits assumed): as the sequence (Q8BHJ7 32-463 limits assumed) above
Sequence of α5GABAA receptors (Mus musculus, UniProt P22723+Q8BHJ7) (P63080 26-473 partner): as the sequence (P63080 26-473 partner) above
Sequence of α5GABAA receptors (Mus musculus, UniProt P22723+Q8BHJ7) (P22723 39-474): as the sequence (P22723 39-474) above

α5GABAA receptors [7] = target: T3, α5GABAA receptors (Homo sapiens, UniProt P18507+P31644); design: host or cells: human volunteers (brain in vivo); conditions: human volunteers, given before ethanol; cited from earlier work
T3 sequence (P31644 32-462): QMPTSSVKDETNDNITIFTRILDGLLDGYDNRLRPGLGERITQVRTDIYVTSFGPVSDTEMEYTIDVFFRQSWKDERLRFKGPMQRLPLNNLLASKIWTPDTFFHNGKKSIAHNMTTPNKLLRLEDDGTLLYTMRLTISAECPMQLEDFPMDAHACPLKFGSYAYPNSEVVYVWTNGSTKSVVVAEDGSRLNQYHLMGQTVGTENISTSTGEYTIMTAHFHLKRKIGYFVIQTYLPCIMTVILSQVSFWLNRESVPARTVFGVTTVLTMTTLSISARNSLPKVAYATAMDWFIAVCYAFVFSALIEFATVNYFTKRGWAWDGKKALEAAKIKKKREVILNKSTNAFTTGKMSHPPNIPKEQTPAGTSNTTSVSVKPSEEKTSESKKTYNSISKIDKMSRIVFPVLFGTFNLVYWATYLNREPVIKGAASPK
T3 sequence (P28472 26-473 partner): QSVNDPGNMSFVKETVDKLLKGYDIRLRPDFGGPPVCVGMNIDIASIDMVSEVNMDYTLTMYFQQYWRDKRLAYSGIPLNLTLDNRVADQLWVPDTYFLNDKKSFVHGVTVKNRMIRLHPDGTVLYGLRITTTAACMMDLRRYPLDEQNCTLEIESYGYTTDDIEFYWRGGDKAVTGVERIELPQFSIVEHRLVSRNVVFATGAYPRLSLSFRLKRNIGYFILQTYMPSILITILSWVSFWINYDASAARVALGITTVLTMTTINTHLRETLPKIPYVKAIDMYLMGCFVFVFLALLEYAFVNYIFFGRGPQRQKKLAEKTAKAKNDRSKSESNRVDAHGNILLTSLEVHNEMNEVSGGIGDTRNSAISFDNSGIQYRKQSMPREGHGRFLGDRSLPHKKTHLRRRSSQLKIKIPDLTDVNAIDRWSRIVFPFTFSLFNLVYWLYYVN
T3 sequence (P18507 40-467 limits assumed): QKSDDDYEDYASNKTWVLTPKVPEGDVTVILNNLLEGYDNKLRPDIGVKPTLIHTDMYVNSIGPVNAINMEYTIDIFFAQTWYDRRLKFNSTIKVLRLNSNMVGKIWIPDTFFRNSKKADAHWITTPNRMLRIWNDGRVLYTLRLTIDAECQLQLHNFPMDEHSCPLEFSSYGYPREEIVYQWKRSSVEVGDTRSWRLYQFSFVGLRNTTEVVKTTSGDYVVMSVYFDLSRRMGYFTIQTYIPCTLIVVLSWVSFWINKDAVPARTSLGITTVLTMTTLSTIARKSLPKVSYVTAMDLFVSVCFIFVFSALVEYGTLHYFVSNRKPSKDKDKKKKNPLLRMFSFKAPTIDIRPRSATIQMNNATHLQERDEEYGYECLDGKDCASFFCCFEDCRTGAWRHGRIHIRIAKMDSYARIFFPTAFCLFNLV

α5GABAARs [8] = target: T1, α5GABAARs; assay: Long-term potentiation of field postsynaptic potentials in hippocampal slices; type: cell-based, mice; design: endogenous in cells; host or cells: primary embryonic mouse hippocampal neurons, alone or co-cultured with cortical microglia
Method: IL-1β could influence any of several molecular processes that regulate synaptic plasticity^50. The key question is whether α5GABAARs underlie the predominant effect of IL-1β on plasticity. Our working hypothesis is that IL-1β acts via α5GABAARs to inhibit LTP. […] After 3 hours, the mice were sacrificed and the hippocampi harvested. Extracellular field recordings were obtained with a recording electrode placed in the stratum radiatum of the CA1 subfield.
The long-term potentiation (LTP) of evoked field postsynaptic potentials (fPSPs) was studied using previously described methods^29. […] Baseline stimulation frequency was 0.05 Hz. LTP was induced in the slices with theta burst stimulation (TBS), which consisted of 10 stimulus trains at 5 Hz, with each train consisting of 4 pulses at 100 Hz. The fPSPs were monitored for 10 min before TBS and for 60 min after TBS.

[9] = pretreatment before tibial osteotomy; cited from earlier work
α5GABAARs [10] = assay: Tonic current in hippocampal neuron-microglia co-culture; type: cell-based, mice; conditions: LPS 100 ng ml^−1 overnight; IL-1ra 250 ng ml^−1

Compound: CNC(=O)c1cc2c(cn1)[nH]c1ccccc12 [FG 7142]
- convulsant / anxiogenic properties (in words) [1]: have epileptogenic and anxiogenic properties

Compound: O=c1cc(N2CCOCC2)oc2c(-c3ccccc3)cccc12 [LY294,002]
- effect on IL-1β inhibition of the GABA-evoked peak current (in words) (postsynaptic GABAARs): completely prevented IL-1β-dependent inhibition of the GABA-evoked peak current; also recorded: alone had no effect on the GABA-evoked peak responses
- effect on the tonic current (in words) (α5GABAARs [2]): had no effect on the IL-1β-induced increase in tonic current

Compound: Cc1ncc2n1-c1ccc(Cl)cc1C(c1ccccc1F)=NC2 [Midazolam, midazolam]
- increase in charge transfer for the tonic current relative to that for mIPSCs (α5GABAARs [3]): 7-21 fold

Compound: CCc1nc(-c2ccc(OC)cc2)[nH]c1-c1ccncc1 [SB202,474]
- effect on the tonic current (in words) (α5GABAARs [2]): had no effect on the tonic current

Compound: C[S+]([O-])c1ccc(-c2nc(-c3ccncc3)c(-c3ccc(F)cc3)[nH]2)cc1 (stereo not shown) [SB203,580]
- effect on IL-1β inhibition of the GABA-evoked peak current (in words) (postsynaptic GABAARs): had no effect on inhibition of the GABA-evoked peak current by IL-1β
- effect on mIPSCs (in words) (synaptic GABAARs): did not modify IL-1β inhibition of miniature IPSCs
- tonic current density (α5GABAARs [2]; IL-1β 20 ng ml^−1 20 min with or without SB203,580 20 μM 30 min): 1.0±0.1 pA pF^−1
- effect on the tonic current (in words) (α5GABAARs [2]): completely blocked the IL-1β-induced increase in the tonic current

Compound: FC(F)OC(F)C(F)(F)F (stereo not shown) [desflurane]
- threshold concentration that impaired memory performance during fear conditioning [4]: 0.44%

Compound: CCOC(=O)c1cncn1[C@H](C)c1ccccc1 [etomidate]
- effect on the tonic current (in words) (α5GABAARs [2]): selectively potentiate the tonic current; also recorded: increased the amplitude of the tonic current; also recorded: produced a supra-additive increase in the tonic current
- contextual fear memory, freezing score (in words) (α5GABAARs [5]): reduced the freezing score

Compound: COc1ccc(-c2ccc(=N)n(CCCC(=O)O)n2)cc1 [gabazine]
- effect on the tonic current (in words) (α5GABAARs [2]): selectively inhibits the synaptic but not tonic current

Compound: FC(F)(F)C(Cl)Br (stereo not shown) [halothane]
- threshold concentration that impaired memory performance during fear conditioning [4]: 0.3%

Compound: CC(C)c1cccc(C(C)C)c1O [propofol]
- increase in charge transfer for the tonic current relative to that for mIPSCs (α5GABAARs [3]): 6-33 fold

Compound: FCOC(C(F)(F)F)C(F)(F)F [sevoflurane]
- effect of the anesthetic on recognition memory, wild-type mice (in words) (α5GABAA receptors [6]): did not learn the task
- effect of the anesthetic on recognition memory, wild-type mice (in words) (α5GABAA receptors [6]; listed as Sevoflurane): caused memory deficits 24 h after anesthesia
- exploratory behavior during the training phase (α5GABAA receptors [6]; 24 h after sevoflurane): 23.45 ± 3.88 s
- time with familiar object (α5GABAA receptors [6]; 24 h after sevoflurane): 13.13±1.95
- time with novel object (α5GABAA receptors [6]; 24 h after sevoflurane): 15.41±2.25
- discrimination ratio, short-term memory (α5GABAA receptors [6]; 24 h after sevoflurane 2.3% 1 h): 0.53±0.03
- threshold concentration that impaired memory performance during fear conditioning [4]: 0.3%

Compound: Cc1cc(-c2nnc3c4ccccc4c(OCc4cn(C)nn4)nn23)no1 [α5IA]
- ethanol-induced memory impairment (in words) (α5GABAA receptors [7]): reversed memory impairment for word-list learning after the ingestion of ethanol; also recorded: attenuated ethanol-induced impairment of word recall

Compound: IL-1ra: naturally occurring IL-1 receptor antagonist that blocks the type 1 IL-1 receptor
- effect on LTP (in words) (α5GABAARs [8]): This inhibition of LTP was abolished by incubating the slices with IL-1ra
- LTP, slope of fPSPs (α5GABAARs [8]; slices from LPS-treated WT mice incubated with IL-1ra 100 ng ml^−1 for 1 h, n=10): 126.2%±3.9%
- effect on IL-1β inhibition of the GABA-evoked peak current (in words) (postsynaptic GABAARs): this effect could be blocked by IL-1ra
- effect on mIPSCs (in words) (synaptic GABAARs): this effect could be blocked by IL-1ra
- postsurgical memory deficits (in words) [9]: no memory deficits were detected
- effect on the tonic current (in words) (α5GABAARs [2]): completely blocked by IL-1ra; also recorded: alone had no effect on the tonic or synaptic currents; also recorded: completely blocked both the increase in tonic current and the reduction of synaptic current by IL-1β
- effect on the tonic current (in words) (α5GABAARs [10]): fully reversed the enhancement of the tonic current

Compound: IL-6: pro-inflammatory cytokine
- amplitude of the tonic current (α5GABAARs [2]): 96.3%±6.0%
- effect on the tonic current (in words) (α5GABAARs [2]): did not modify the tonic conductance in hippocampal neurons

Compound: TNF-α
- amplitude of the tonic current (α5GABAARs [2]): 104.1%±12.1%
- effect on the tonic current (in words) (α5GABAARs [2]): did not modify the tonic conductance in hippocampal neurons

From patent publication US9517265B2, “Methods for the prevention and/or treatment of memory impairment” (The Governing Council of the University of Toronto, priority 2010, dated 2016)
